ChEMBL document CHEMBL5365481, “Design, Synthesis, and Activity Evaluation of Novel Dual-Target Inhibitors with Antifungal and Immunoregulatory Properties” (J Med Chem, 2023)
Converted amounts (≈) assume the structure as drawn.

Each compound was assayed on Pichia kudriavzevii (assay: Antifungal activity against Candida krusei ATCC 6258 assessed as inhibition of fungal growth incubated for 72 hrs by CLSI based liquid medium microdilution method).
Type: functional

SMILES | MIC50
CC(=O)c1ccc(NC(=O)c2nc(-n3ccnc3)c3cc(Cl)ccc3n2)cc1 | 4 µg/mL (≈ 10.2 µM)
CS(=O)(=O)c1ccc(NC(=O)c2nc(-n3ccnc3)c3cc(Cl)ccc3n2)cc1 | 2 µg/mL (≈ 4.67 µM)
O=C(NC1CCCc2ccccc21)c1nc(-n2ccnc2)c2ccccc2n1 (stereo not given) | 2 µg/mL (≈ 5.41 µM)
COc1ccc(C(=O)N2CCC(NC(=O)c3nc(-n4cncn4)c4ccccc4n3)CC2)cc1 | 0.5 µg/mL (≈ 1.09 µM)
O=C(NCc1ccccc1)c1nc(-n2cncn2)c2cc(Cl)ccc2n1 | 0.5 µg/mL (≈ 1.37 µM)
CS(=O)(=O)c1ccc(NC(=O)c2nc(-n3ccnc3)c3ccccc3n2)cc1 | 4 µg/mL (≈ 10.2 µM)
CC(=O)N1CCN(c2ccc(OCC3COC(Cn4ccnc4)(c4ccc(Cl)cc4Cl)O3)cc2)CC1 (stereo not given) [KETOCONAZOLE] | 1 µg/mL (≈ 1.88 µM)
O=C(NCc1ccccc1)c1nc(-n2ccnc2)c2cc(Cl)ccc2n1 | 1 µg/mL (≈ 2.75 µM)
COc1ccc(C(=O)N2CCC(NC(=O)c3nc(-n4ccnc4)c4ccccc4n3)CC2)cc1 | 2 µg/mL (≈ 4.38 µM)
O=C(NCc1ccccc1)c1nc(-n2ccnc2)c2ccccc2n1 | 1 µg/mL (≈ 3.04 µM)
O=C(NC1CCCc2ccccc21)c1nc(-n2cncn2)c2cc(Cl)ccc2n1 (stereo not given) | > 8 µg/mL

What follows are compounds tested on Candida albicans (assay: Antifungal activity against fluconazole-resistant Candida albicans 17# assessed as inhibition of fungal growth incubated for 72 hrs by CLSI based liquid medium microdilution method).
Type: functional

SMILES | MIC50
CC(=O)N1CCN(c2ccc(OCC3COC(Cn4ccnc4)(c4ccc(Cl)cc4Cl)O3)cc2)CC1 (stereo not given) [KETOCONAZOLE] | 2 µg/mL (≈ 3.76 µM)

What follows are compounds tested on Candida albicans (assay: Antifungal activity against fluconazole-resistant Candida albicans CaR assessed as inhibition of fungal growth incubated for 72 hrs by CLSI based liquid medium microdilution method).
Type: functional

SMILES | MIC50
CC(=O)N1CCN(c2ccc(OCC3COC(Cn4ccnc4)(c4ccc(Cl)cc4Cl)O3)cc2)CC1 (stereo not given) [KETOCONAZOLE] | 4 µg/mL (≈ 7.53 µM)

The compounds below were run on Candida albicans (assay: Antifungal activity against fluconazole-resistant Candida albicans 632 assessed as inhibition of fungal growth incubated for 72 hrs by CLSI based liquid medium microdilution method).
Type: functional

SMILES | MIC50
CC(=O)N1CCN(c2ccc(OCC3COC(Cn4ccnc4)(c4ccc(Cl)cc4Cl)O3)cc2)CC1 (stereo not given) [KETOCONAZOLE] | > 8 µg/mL

Each compound was assayed on Aspergillus fumigatus (assay: Antifungal activity against Aspergillus fumigatus KM8001 assessed as inhibition of fungal growth incubated for 72 hrs by CLSI based liquid medium microdilution method).
Type: functional

SMILES | MIC50
CC(=O)c1ccc(NC(=O)c2nc(-n3ccnc3)c3cc(Cl)ccc3n2)cc1 | > 8 µg/mL
CS(=O)(=O)c1ccc(NC(=O)c2nc(-n3ccnc3)c3cc(Cl)ccc3n2)cc1 | 4 µg/mL (≈ 9.35 µM)
O=C(NC1CCCc2ccccc21)c1nc(-n2ccnc2)c2ccccc2n1 (stereo not given) | 4 µg/mL (≈ 10.8 µM)
COc1ccc(C(=O)N2CCC(NC(=O)c3nc(-n4cncn4)c4ccccc4n3)CC2)cc1 | 2 µg/mL (≈ 4.37 µM)
O=C(NCc1ccccc1)c1nc(-n2cncn2)c2cc(Cl)ccc2n1 | 2 µg/mL (≈ 5.48 µM)
CS(=O)(=O)c1ccc(NC(=O)c2nc(-n3ccnc3)c3ccccc3n2)cc1 | > 8 µg/mL
CC(=O)N1CCN(c2ccc(OCC3COC(Cn4ccnc4)(c4ccc(Cl)cc4Cl)O3)cc2)CC1 (stereo not given) [KETOCONAZOLE] | 4 µg/mL (≈ 7.53 µM)
O=C(NCc1ccccc1)c1nc(-n2ccnc2)c2cc(Cl)ccc2n1 | 4 µg/mL (≈ 11 µM)
COc1ccc(C(=O)N2CCC(NC(=O)c3nc(-n4ccnc4)c4ccccc4n3)CC2)cc1 | 4 µg/mL (≈ 8.76 µM)
O=C(NCc1ccccc1)c1nc(-n2ccnc2)c2ccccc2n1 | > 8 µg/mL
O=C(NC1CCCc2ccccc21)c1nc(-n2cncn2)c2cc(Cl)ccc2n1 (stereo not given) | > 8 µg/mL

These compounds were tested on Candida tropicalis (assay: Antifungal activity against Candida tropicalis ATCC 1369 assessed as inhibition of fungal growth incubated for 72 hrs by CLSI based liquid medium microdilution method).
Type: functional

SMILES | MIC50
CC(=O)c1ccc(NC(=O)c2nc(-n3ccnc3)c3cc(Cl)ccc3n2)cc1 | 1 µg/mL (≈ 2.55 µM)
CS(=O)(=O)c1ccc(NC(=O)c2nc(-n3ccnc3)c3cc(Cl)ccc3n2)cc1 | 2 µg/mL (≈ 4.67 µM)
O=C(NC1CCCc2ccccc21)c1nc(-n2ccnc2)c2ccccc2n1 (stereo not given) | 4 µg/mL (≈ 10.8 µM)
COc1ccc(C(=O)N2CCC(NC(=O)c3nc(-n4cncn4)c4ccccc4n3)CC2)cc1 | 0.5 µg/mL (≈ 1.09 µM)
O=C(NCc1ccccc1)c1nc(-n2cncn2)c2cc(Cl)ccc2n1 | 1 µg/mL (≈ 2.74 µM)
CS(=O)(=O)c1ccc(NC(=O)c2nc(-n3ccnc3)c3ccccc3n2)cc1 | 4 µg/mL (≈ 10.2 µM)
CC(=O)N1CCN(c2ccc(OCC3COC(Cn4ccnc4)(c4ccc(Cl)cc4Cl)O3)cc2)CC1 (stereo not given) [KETOCONAZOLE] | 0.5 µg/mL (≈ 0.941 µM)
O=C(NCc1ccccc1)c1nc(-n2ccnc2)c2cc(Cl)ccc2n1 | 2 µg/mL (≈ 5.5 µM)
COc1ccc(C(=O)N2CCC(NC(=O)c3nc(-n4ccnc4)c4ccccc4n3)CC2)cc1 | 1 µg/mL (≈ 2.19 µM)
O=C(NCc1ccccc1)c1nc(-n2ccnc2)c2ccccc2n1 | 2 µg/mL (≈ 6.07 µM)
O=C(NC1CCCc2ccccc21)c1nc(-n2cncn2)c2cc(Cl)ccc2n1 (stereo not given) | 2 µg/mL (≈ 4.94 µM)

The compounds below were run on Candida albicans (assay: Antifungal activity against fluconazole-resistant Candida albicans 901 assessed as inhibition of fungal growth incubated for 72 hrs by CLSI based liquid medium microdilution method).
Type: functional

SMILES | MIC50
CC(=O)N1CCN(c2ccc(OCC3COC(Cn4ccnc4)(c4ccc(Cl)cc4Cl)O3)cc2)CC1 (stereo not given) [KETOCONAZOLE] | 4 µg/mL (≈ 7.53 µM)

The compounds below were run on Candida albicans (assay: Antifungal activity against fluconazole-resistant Candida albicans 904 assessed as inhibition of fungal growth incubated for 72 hrs by CLSI based liquid medium microdilution method).
Type: functional

SMILES | MIC50
CC(=O)N1CCN(c2ccc(OCC3COC(Cn4ccnc4)(c4ccc(Cl)cc4Cl)O3)cc2)CC1 (stereo not given) [KETOCONAZOLE] | > 8 µg/mL

What follows are compounds tested on Candida albicans (assay: Antifungal activity against Candida albicans ATCC SC5314 assessed as inhibition of fungal growth incubated for 72 hrs by CLSI based liquid medium microdilution method).
Type: functional

SMILES | MIC50
CC(=O)c1ccc(NC(=O)c2nc(-n3ccnc3)c3cc(Cl)ccc3n2)cc1 | 1 µg/mL (≈ 2.55 µM)
CS(=O)(=O)c1ccc(NC(=O)c2nc(-n3ccnc3)c3cc(Cl)ccc3n2)cc1 | 1 µg/mL (≈ 2.34 µM)
O=C(NC1CCCc2ccccc21)c1nc(-n2ccnc2)c2ccccc2n1 (stereo not given) | 4 µg/mL (≈ 10.8 µM)
COc1ccc(C(=O)N2CCC(NC(=O)c3nc(-n4cncn4)c4ccccc4n3)CC2)cc1 | 0.5 µg/mL (≈ 1.09 µM)
O=C(NCc1ccccc1)c1nc(-n2cncn2)c2cc(Cl)ccc2n1 | 1 µg/mL (≈ 2.74 µM)
CS(=O)(=O)c1ccc(NC(=O)c2nc(-n3ccnc3)c3ccccc3n2)cc1 | 2 µg/mL (≈ 5.08 µM)
CC(=O)N1CCN(c2ccc(OCC3COC(Cn4ccnc4)(c4ccc(Cl)cc4Cl)O3)cc2)CC1 (stereo not given) [KETOCONAZOLE] | 2 µg/mL (≈ 3.76 µM)
O=C(NCc1ccccc1)c1nc(-n2ccnc2)c2cc(Cl)ccc2n1 | 2 µg/mL (≈ 5.5 µM)
COc1ccc(C(=O)N2CCC(NC(=O)c3nc(-n4ccnc4)c4ccccc4n3)CC2)cc1 | 2 µg/mL (≈ 4.38 µM)
O=C(NCc1ccccc1)c1nc(-n2ccnc2)c2ccccc2n1 | 2 µg/mL (≈ 6.07 µM)
O=C(NC1CCCc2ccccc21)c1nc(-n2cncn2)c2cc(Cl)ccc2n1 (stereo not given) | 2 µg/mL (≈ 4.94 µM)

These compounds were tested on Cryptococcus neoformans (assay: Antifungal activity against Cryptococcus neoformans ZKCC 2209 assessed as inhibition of fungal growth incubated for 72 hrs by CLSI based liquid medium microdilution method).
Type: functional

SMILES | MIC50
CC(=O)c1ccc(NC(=O)c2nc(-n3ccnc3)c3cc(Cl)ccc3n2)cc1 | 2 µg/mL (≈ 5.1 µM)
CS(=O)(=O)c1ccc(NC(=O)c2nc(-n3ccnc3)c3cc(Cl)ccc3n2)cc1 | 0.5 µg/mL (≈ 1.17 µM)
O=C(NC1CCCc2ccccc21)c1nc(-n2ccnc2)c2ccccc2n1 (stereo not given) | 2 µg/mL (≈ 5.41 µM)
COc1ccc(C(=O)N2CCC(NC(=O)c3nc(-n4cncn4)c4ccccc4n3)CC2)cc1 | 1 µg/mL (≈ 2.19 µM)
O=C(NCc1ccccc1)c1nc(-n2cncn2)c2cc(Cl)ccc2n1 | 1 µg/mL (≈ 2.74 µM)
CS(=O)(=O)c1ccc(NC(=O)c2nc(-n3ccnc3)c3ccccc3n2)cc1 | 1 µg/mL (≈ 2.54 µM)
CC(=O)N1CCN(c2ccc(OCC3COC(Cn4ccnc4)(c4ccc(Cl)cc4Cl)O3)cc2)CC1 (stereo not given) [KETOCONAZOLE] | 1 µg/mL (≈ 1.88 µM)
O=C(NCc1ccccc1)c1nc(-n2ccnc2)c2cc(Cl)ccc2n1 | 4 µg/mL (≈ 11 µM)
COc1ccc(C(=O)N2CCC(NC(=O)c3nc(-n4ccnc4)c4ccccc4n3)CC2)cc1 | 1 µg/mL (≈ 2.19 µM)
O=C(NCc1ccccc1)c1nc(-n2ccnc2)c2ccccc2n1 | 4 µg/mL (≈ 12.1 µM)
O=C(NC1CCCc2ccccc21)c1nc(-n2cncn2)c2cc(Cl)ccc2n1 (stereo not given) | 2 µg/mL (≈ 4.94 µM)
